Earlier results in publication PMC3433420 (PLoS ONE, 2012).
pKd: −log10 of the molar value. Where two headings read alike, the source gives them in different places.

Molecular target: SH2 and PTB domains
Conditions: cited from earlier work
From the text: Supplement pone.0044471.s022.xlsx, sheet "Most recent PM interactions" | column: Kd || Supplement pone.0044471.s022.xlsx, sheet "All original PM interactions" | column: Kd

**Q.** With “DNPDpYWNHSLPPd [ErbB4 pY1242, N-terminally rhodamine-labeled 13-mer phosphopeptide]” as the substance, how does the pKd (protein ABL2, ref Kaushansky et al. Chem and Biol 2008) read?
**A.** 7.47

**Q.** What about the pKd (protein SHC1-PTB, ref Kaushansky et al. Chem and Biol 2008) of the same substance?
**A.** 6.29

**Q.** With “FLQRpYSSDPTGAd [ErbB1 pY1069, N-terminally rhodamine-labeled 13-mer phosphopeptide]” as the substance, how does the pKd (protein ABL2, ref Jones et al. 2006 / Kaushansky et al. Mol Biosys 2008 / Kaushansky et al. Chem and Biol 2008) read?
**A.** 5.70

**Q.** What about the pKd (protein SHB, ref Jones et al. 2006 / Kaushansky et al. Mol Biosys 2008 / Kaushansky et al. Chem and Biol 2008) of the same substance?
**A.** 6.07

**Q.** What about the pKd (protein YES1, ref Jones et al. 2006 / Kaushansky et al. Mol Biosys 2008 / Kaushansky et al. Chem and Biol 2008) of the same substance?
**A.** 6.52

**Q.** With “ENPEpYLGLDVPVd [ErbB2 pY1248, N-terminally rhodamine-labeled 13-mer phosphopeptide]” as the substance, how does the pKd (Protein ABL2, original PM interactions, ref Jones et al. 2006 / Kaushansky et al. Chem and Biol 2008) read?
**A.** 6.68

**Q.** And the pKd (Protein SHC1-PTB, original PM interactions, ref Jones et al. 2006 / Kaushansky et al. Chem and Biol 2008)?
**A.** 6.55

**Q.** With LPPDDKQLLpYSEAKTPI [ErbB3 868] as the substance, how does the pKd (Protein ABL2, most recent PM interactions, ref Jones et al. 2006 / Kaushansky et al. Chem and Biol 2008) read?
**A.** 7.15

**Q.** What about the pKd (Protein BCAR3, most recent PM interactions, ref Jones et al. 2006 / Kaushansky et al. Chem and Biol 2008) of the same substance?
**A.** 5.75

**Q.** And the pKd (Protein CRKL, most recent PM interactions, ref Jones et al. 2006 / Kaushansky et al. Chem and Biol 2008)?
**A.** 5.75

**Q.** What about the pKd (Protein RASA1-N, most recent PM interactions, ref Jones et al. 2006 / Kaushansky et al. Chem and Biol 2008) of the same substance?
**A.** 6.02

**Q.** What about the pKd (Protein SYK-NC, most recent PM interactions, ref Jones et al. 2006 / Kaushansky et al. Chem and Biol 2008) of the same substance?
**A.** 6.04

**Q.** With “PGGDpYAAMGACPd [ErbB3 pY1276, N-terminally rhodamine-labeled 13-mer phosphopeptide]” as the substance, how does the pKd (Protein ABL1, original PM interactions, ref Jones et al. 2006 / Kaushansky et al. Chem and Biol 2008) read?
**A.** 5.70

**Q.** And the pKd (Protein BCAR3, original PM interactions, ref Jones et al. 2006 / Kaushansky et al. Chem and Biol 2008)?
**A.** 5.70

**Q.** And the pKd (Protein CRKL, original PM interactions, ref Jones et al. 2006 / Kaushansky et al. Chem and Biol 2008)?
**A.** 6.36

**Q.** And the pKd (Protein PIK3R3-C, original PM interactions, ref Jones et al. 2006 / Kaushansky et al. Chem and Biol 2008)?
**A.** 6.30

**Q.** And the pKd (Protein PIK3R3-N, original PM interactions, ref Jones et al. 2006 / Kaushansky et al. Chem and Biol 2008)?
**A.** 6.30

**Q.** What about the pKd (Protein PTK6, original PM interactions, ref Jones et al. 2006 / Kaushansky et al. Chem and Biol 2008) of the same substance?
**A.** 6.36

**Q.** What about the pKd (Protein SH2B2, original PM interactions, ref Jones et al. 2006 / Kaushansky et al. Chem and Biol 2008) of the same substance?
**A.** 5.70

**Q.** And the pKd (Protein SHC1, original PM interactions, ref Jones et al. 2006 / Kaushansky et al. Chem and Biol 2008)?
**A.** 6.22

**Q.** What about the pKd (Protein SLA2, original PM interactions, ref Jones et al. 2006 / Kaushansky et al. Chem and Biol 2008) of the same substance?
**A.** 5.70

**Q.** What about the pKd (Protein SLA, original PM interactions, ref Jones et al. 2006 / Kaushansky et al. Chem and Biol 2008) of the same substance?
**A.** 5.70

**Q.** What about the pKd (Protein SYK-NC, original PM interactions, ref Jones et al. 2006 / Kaushansky et al. Chem and Biol 2008) of the same substance?
**A.** 6.22

**Q.** What about the pKd (Protein TENC1, original PM interactions, ref Jones et al. 2006 / Kaushansky et al. Chem and Biol 2008) of the same substance?
**A.** 5.70

**Q.** What about the pKd (Protein VAV1, original PM interactions, ref Jones et al. 2006 / Kaushansky et al. Chem and Biol 2008) of the same substance?
**A.** 5.70

**Q.** What about the pKd (protein ABL2, ref Jones et al. 2006 / Kaushansky et al. Chem and Biol 2008) of the same substance?
**A.** 6.82

**Q.** And the pKd (protein CRK, ref Jones et al. 2006 / Kaushansky et al. Chem and Biol 2008)?
**A.** 6.59

**Q.** And the pKd (protein CRKL, ref Jones et al. 2006 / Kaushansky et al. Chem and Biol 2008)?
**A.** 6.36

**Q.** And the pKd (protein HCK, ref Jones et al. 2006 / Kaushansky et al. Chem and Biol 2008)?
**A.** 6.24

**Q.** And the pKd (protein NCK1, ref Jones et al. 2006 / Kaushansky et al. Chem and Biol 2008)?
**A.** 6.68

**Q.** What about the pKd (protein NCK2, ref Jones et al. 2006 / Kaushansky et al. Chem and Biol 2008) of the same substance?
**A.** 6.26

**Q.** And the pKd (protein PIK3R1-N, ref Jones et al. 2006 / Kaushansky et al. Chem and Biol 2008)?
**A.** 6.28

**Q.** What about the pKd (protein PIK3R1-NC, ref Jones et al. 2006 / Kaushansky et al. Chem and Biol 2008) of the same substance?
**A.** 7.26

**Q.** What about the pKd (protein PIK3R2-C, ref Jones et al. 2006 / Kaushansky et al. Chem and Biol 2008) of the same substance?
**A.** 6.03

**Q.** And the pKd (protein PIK3R2-N, ref Jones et al. 2006 / Kaushansky et al. Chem and Biol 2008)?
**A.** 6.92

**Q.** What about the pKd (protein PIK3R2-NC, ref Jones et al. 2006 / Kaushansky et al. Chem and Biol 2008) of the same substance?
**A.** 7.10

**Q.** And the pKd (protein PIK3R3-C, ref Jones et al. 2006 / Kaushansky et al. Chem and Biol 2008)?
**A.** 6.30

**Q.** And the pKd (protein PIK3R3-N, ref Jones et al. 2006 / Kaushansky et al. Chem and Biol 2008)?
**A.** 6.30

**Q.** What about the pKd (protein PIK3R3-NC, ref Jones et al. 2006 / Kaushansky et al. Chem and Biol 2008) of the same substance?
**A.** 7.85

**Q.** And the pKd (protein PLCG1-C, ref Jones et al. 2006 / Kaushansky et al. Chem and Biol 2008)?
**A.** 6.16

**Q.** And the pKd (protein PLCG1-NC, ref Jones et al. 2006 / Kaushansky et al. Chem and Biol 2008)?
**A.** 6.14

**Q.** And the pKd (protein PTK6, ref Jones et al. 2006 / Kaushansky et al. Chem and Biol 2008)?
**A.** 6.36

**Q.** And the pKd (protein RASA1-N, ref Jones et al. 2006 / Kaushansky et al. Chem and Biol 2008)?
**A.** 6.04

**Q.** And the pKd (protein SHC1, ref Jones et al. 2006 / Kaushansky et al. Chem and Biol 2008)?
**A.** 6.22

**Q.** And the pKd (protein SHC3, ref Jones et al. 2006 / Kaushansky et al. Chem and Biol 2008)?
**A.** 6.19

**Q.** What about the pKd (protein SYK-NC, ref Jones et al. 2006 / Kaushansky et al. Chem and Biol 2008) of the same substance?
**A.** 6.22

**Q.** What about the pKd (protein TXK, ref Jones et al. 2006 / Kaushansky et al. Chem and Biol 2008) of the same substance?
**A.** 5.78

**Q.** And the pKd (protein VAV2, ref Jones et al. 2006 / Kaushansky et al. Chem and Biol 2008)?
**A.** 6.52

**Q.** And the pKd (protein VAV3, ref Jones et al. 2006 / Kaushansky et al. Chem and Biol 2008)?
**A.** 5.81

**Q.** What about the pKd (protein ZAP70-C, ref Jones et al. 2006 / Kaushansky et al. Chem and Biol 2008) of the same substance?
**A.** 5.84
